Results from ChEMBL document CHEMBL4715821, “Discovery of 4-ethoxy-7H-pyrrolo[2,3-d]pyrimidin-2-amines as potent, selective and orally bioavailable LRRK2 inhibitors” (Bioorg Med Chem Lett, 2018).
Values after ≈ are worked out from the molar mass of the structure shown.

Tests used:
[1] = molecular target: T1, Leucine-rich repeat serine/threonine-protein kinase 2 (Homo sapiens, UniProt Q5S007); test: Inhibition of recombinant His6-Tev-LRRK2 (1326 to 2527 residues) (unknown origin) using LRRKtide as substrate preincubated for 30 mins followed by substrate addition and measured after 2 hrs in presence of ATP by TR-FRET assay
T1 sequence (Q5S007 whole entry, the tested form may be a part): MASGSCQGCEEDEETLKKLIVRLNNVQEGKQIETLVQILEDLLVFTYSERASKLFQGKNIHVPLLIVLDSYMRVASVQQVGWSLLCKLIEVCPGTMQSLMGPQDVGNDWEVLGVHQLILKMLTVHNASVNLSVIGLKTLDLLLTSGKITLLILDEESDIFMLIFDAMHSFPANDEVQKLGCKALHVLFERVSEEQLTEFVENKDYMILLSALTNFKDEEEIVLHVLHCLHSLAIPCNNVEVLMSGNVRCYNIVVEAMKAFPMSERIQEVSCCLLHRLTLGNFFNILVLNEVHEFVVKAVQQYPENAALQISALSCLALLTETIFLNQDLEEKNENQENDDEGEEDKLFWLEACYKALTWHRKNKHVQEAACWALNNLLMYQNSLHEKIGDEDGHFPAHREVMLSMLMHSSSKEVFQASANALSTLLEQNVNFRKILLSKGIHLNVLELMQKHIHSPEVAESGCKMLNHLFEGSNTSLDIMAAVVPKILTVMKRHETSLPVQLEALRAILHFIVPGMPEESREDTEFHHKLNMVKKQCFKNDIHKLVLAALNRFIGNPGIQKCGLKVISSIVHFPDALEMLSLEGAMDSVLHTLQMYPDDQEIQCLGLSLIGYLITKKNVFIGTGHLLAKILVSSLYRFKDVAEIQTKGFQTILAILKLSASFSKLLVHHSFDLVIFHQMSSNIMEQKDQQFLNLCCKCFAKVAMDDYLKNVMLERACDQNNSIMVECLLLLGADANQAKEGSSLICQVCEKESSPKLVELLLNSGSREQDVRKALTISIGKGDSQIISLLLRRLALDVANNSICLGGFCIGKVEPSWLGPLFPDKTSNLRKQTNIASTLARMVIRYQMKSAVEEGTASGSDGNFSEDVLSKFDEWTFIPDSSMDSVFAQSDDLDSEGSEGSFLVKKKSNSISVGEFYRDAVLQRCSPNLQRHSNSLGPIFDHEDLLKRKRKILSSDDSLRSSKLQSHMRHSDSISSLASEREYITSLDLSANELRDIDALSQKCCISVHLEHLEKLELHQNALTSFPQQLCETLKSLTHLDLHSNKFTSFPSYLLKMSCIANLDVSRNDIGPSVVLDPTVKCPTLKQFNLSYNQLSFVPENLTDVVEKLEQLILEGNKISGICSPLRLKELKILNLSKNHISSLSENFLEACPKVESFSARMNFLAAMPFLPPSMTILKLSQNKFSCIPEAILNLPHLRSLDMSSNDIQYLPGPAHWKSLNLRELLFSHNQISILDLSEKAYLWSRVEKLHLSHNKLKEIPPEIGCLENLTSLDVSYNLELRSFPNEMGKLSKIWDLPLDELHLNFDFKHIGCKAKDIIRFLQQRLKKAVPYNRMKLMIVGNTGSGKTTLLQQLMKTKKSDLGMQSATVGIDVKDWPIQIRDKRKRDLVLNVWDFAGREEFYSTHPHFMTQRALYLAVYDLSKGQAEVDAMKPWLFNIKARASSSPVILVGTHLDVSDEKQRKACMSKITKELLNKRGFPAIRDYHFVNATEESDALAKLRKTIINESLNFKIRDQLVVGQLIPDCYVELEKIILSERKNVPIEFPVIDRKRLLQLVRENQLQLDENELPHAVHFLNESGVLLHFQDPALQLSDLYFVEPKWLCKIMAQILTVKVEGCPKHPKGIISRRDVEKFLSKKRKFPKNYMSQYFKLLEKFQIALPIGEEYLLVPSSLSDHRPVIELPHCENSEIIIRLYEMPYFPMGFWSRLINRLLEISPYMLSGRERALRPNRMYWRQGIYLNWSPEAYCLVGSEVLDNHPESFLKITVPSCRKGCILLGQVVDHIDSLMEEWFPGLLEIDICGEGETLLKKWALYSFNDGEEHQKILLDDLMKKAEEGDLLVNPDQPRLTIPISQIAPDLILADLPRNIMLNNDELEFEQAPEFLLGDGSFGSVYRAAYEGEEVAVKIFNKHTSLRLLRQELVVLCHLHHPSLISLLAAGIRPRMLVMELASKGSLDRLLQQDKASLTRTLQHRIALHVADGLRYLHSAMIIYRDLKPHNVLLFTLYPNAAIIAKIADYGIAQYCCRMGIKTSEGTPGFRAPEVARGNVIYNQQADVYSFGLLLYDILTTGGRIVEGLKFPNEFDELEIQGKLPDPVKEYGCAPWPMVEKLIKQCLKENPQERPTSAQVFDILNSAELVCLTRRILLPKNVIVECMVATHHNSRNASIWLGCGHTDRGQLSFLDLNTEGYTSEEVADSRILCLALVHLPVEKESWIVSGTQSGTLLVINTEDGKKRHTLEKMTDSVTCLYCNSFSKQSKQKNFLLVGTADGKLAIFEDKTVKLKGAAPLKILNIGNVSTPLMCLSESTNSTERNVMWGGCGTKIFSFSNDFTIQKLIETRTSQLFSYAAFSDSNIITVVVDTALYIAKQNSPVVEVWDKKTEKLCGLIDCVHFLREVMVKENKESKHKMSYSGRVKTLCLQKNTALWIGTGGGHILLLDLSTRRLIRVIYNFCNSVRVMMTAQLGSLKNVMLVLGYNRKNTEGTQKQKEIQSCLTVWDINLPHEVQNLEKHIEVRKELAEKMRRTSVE

[2] = molecular target: T1, Leucine-rich repeat serine/threonine-protein kinase 2; test: Inhibition of recombinant full-length LRRK2 (unknown origin) expressed in SH-SY5Y cells assessed as reduction in Ser935 phosphorylation after 60 mins by Alpha Screen assay; format: cell-based
[3] = Lipophilicity, logD of compound at pH 7.4; settings: buffer
[4] = Solubility of the compound in FaSSIF measured after 4 hrs; format: physicochemical
[5] = Artificial membrane permeability by PAMPA method; format: ADME; settings: read-out: permeability
[6] = molecular target: Mitogen-activated protein kinase kinase kinase 9 (Homo sapiens) (UniProt P80192); test: Inhibition of MLK1 (unknown origin) at 1 uM by radioactivity-based enzymatic assay relative to control
Chain of Mitogen-activated protein kinase kinase kinase 9 (Homo sapiens) (P80192 whole entry, looked up): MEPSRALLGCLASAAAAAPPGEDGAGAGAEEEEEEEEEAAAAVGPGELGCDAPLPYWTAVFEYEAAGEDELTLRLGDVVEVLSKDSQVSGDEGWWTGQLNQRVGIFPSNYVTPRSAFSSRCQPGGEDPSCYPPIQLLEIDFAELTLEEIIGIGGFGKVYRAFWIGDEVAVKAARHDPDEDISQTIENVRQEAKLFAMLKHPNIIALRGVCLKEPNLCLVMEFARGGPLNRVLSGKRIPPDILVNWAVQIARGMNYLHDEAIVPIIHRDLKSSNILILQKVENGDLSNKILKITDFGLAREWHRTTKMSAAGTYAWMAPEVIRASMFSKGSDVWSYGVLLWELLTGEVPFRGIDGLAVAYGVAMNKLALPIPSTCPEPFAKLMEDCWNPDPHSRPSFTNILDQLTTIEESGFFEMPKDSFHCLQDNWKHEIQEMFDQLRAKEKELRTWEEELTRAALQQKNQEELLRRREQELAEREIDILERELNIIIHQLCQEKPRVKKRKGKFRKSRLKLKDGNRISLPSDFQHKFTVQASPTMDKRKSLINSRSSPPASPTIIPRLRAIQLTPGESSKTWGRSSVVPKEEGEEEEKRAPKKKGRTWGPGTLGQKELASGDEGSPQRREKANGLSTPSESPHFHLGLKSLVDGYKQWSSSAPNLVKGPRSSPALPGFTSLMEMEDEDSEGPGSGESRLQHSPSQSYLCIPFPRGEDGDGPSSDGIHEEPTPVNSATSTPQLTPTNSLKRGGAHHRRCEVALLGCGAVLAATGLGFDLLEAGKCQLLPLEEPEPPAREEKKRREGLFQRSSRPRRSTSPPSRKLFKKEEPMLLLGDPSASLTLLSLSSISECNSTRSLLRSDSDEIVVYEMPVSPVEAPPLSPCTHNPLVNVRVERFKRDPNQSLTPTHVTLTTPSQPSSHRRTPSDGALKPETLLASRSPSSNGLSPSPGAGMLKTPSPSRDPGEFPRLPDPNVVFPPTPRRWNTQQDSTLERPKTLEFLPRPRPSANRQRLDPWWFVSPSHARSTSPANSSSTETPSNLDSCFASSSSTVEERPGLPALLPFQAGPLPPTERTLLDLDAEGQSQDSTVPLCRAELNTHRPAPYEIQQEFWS

[7] = molecular target: Tyrosine-protein kinase JAK2 (Homo sapiens) (UniProt O60674); test: Inhibition of JAK2 (unknown origin) at 1 uM by radioactivity-based enzymatic assay relative to control
Chain of Tyrosine-protein kinase JAK2 (Homo sapiens) (O60674 whole entry): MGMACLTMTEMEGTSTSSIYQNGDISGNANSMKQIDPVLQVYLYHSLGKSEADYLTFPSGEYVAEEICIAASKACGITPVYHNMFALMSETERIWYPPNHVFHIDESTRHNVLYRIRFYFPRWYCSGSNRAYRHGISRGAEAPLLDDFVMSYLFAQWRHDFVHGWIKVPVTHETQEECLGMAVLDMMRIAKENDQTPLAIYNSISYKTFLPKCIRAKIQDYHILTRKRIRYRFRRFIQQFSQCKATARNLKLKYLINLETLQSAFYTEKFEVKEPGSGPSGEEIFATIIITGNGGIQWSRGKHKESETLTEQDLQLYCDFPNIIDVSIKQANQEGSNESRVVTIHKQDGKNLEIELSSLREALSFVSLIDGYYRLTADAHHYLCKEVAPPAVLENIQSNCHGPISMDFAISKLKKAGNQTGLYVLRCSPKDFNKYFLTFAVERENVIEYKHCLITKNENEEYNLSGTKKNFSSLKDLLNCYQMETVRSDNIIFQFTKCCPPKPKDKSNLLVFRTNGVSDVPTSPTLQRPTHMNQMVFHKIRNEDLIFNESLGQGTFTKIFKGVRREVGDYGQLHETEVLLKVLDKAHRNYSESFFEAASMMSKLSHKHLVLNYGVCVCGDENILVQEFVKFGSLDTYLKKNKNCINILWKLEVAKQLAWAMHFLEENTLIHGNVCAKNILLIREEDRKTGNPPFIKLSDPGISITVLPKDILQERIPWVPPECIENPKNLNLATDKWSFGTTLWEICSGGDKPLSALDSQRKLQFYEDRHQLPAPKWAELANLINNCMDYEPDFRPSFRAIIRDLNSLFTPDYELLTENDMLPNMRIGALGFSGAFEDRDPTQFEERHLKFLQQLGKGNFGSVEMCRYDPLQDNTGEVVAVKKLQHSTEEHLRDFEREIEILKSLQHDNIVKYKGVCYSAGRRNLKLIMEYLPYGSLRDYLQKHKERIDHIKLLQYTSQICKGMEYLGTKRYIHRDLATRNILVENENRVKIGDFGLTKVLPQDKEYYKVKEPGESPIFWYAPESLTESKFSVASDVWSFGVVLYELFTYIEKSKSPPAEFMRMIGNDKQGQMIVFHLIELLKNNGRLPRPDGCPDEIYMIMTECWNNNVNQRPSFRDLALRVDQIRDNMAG

[8] = molecular target: T2, Mitogen-activated protein kinase kinase kinase kinase 3 (Homo sapiens) (UniProt Q8IVH8); test: Inhibition of MAP4K3 (unknown origin) at 1 uM by radioactivity-based enzymatic assay relative to control
T2 sequence (whole entry): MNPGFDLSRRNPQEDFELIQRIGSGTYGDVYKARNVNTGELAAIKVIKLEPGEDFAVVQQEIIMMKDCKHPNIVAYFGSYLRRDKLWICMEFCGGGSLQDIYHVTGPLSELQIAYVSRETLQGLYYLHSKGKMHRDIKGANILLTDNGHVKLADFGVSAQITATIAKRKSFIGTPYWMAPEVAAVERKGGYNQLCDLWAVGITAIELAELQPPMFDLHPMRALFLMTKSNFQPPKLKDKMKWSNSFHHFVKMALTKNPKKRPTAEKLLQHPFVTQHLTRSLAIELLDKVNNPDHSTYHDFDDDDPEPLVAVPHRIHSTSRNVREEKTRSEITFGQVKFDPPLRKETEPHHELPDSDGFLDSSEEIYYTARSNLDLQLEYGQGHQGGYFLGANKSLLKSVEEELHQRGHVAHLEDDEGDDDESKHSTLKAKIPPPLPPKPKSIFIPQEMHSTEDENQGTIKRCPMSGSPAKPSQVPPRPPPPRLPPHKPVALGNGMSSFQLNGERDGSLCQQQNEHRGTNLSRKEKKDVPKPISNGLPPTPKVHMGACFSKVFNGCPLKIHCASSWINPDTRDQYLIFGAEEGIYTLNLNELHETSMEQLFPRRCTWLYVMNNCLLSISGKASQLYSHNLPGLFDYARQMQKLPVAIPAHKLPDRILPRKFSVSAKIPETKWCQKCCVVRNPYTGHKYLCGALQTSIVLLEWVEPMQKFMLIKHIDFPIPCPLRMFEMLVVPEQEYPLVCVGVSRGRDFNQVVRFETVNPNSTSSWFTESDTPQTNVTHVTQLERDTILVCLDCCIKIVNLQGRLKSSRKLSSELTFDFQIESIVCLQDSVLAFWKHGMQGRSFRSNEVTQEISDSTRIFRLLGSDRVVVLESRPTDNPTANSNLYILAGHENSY

[9] = molecular target: T3, Interleukin-1 receptor-associated kinase 4 (Homo sapiens) (UniProt Q9NWZ3); test: Inhibition of IRAK4 (unknown origin) at 1 uM by radioactivity-based enzymatic assay relative to control
T3 sequence (whole entry): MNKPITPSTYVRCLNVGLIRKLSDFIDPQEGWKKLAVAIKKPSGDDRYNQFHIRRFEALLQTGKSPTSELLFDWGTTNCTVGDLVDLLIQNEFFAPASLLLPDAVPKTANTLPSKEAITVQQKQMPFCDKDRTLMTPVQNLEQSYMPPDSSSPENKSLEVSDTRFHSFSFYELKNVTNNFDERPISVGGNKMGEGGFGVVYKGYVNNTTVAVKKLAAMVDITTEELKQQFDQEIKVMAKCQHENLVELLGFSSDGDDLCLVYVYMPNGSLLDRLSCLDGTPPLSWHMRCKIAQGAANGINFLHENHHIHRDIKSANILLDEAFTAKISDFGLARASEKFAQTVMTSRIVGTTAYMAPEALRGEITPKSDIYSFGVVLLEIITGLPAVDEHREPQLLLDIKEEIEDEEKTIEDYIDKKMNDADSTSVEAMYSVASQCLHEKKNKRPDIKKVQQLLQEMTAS

[10] = molecular target: Tyrosine-protein kinase SYK (Homo sapiens) (UniProt P43405); test: Inhibition of SYK (unknown origin) at 1 uM by radioactivity-based enzymatic assay relative to control
[11] = Metabolic stability in human liver microsomes assessed as intrinsic clearance; format: ADME, Microsome
[12] = Permeability ratio across apical side to basolateral side in MDCK2 cells transfected with Bacmam virus containing human BCRP at 3 uM after 90 mins in presence or absence of GF120918 by transwell assay; format: ADME, cell-based, Canis lupus familiaris; settings: dog, mdck-ii, 1.5 h
[13] = Dose normalized AUC (0 to t) in Han-Wistar rat blood at 2 mg/kg, po measured up to 7 hrs by UPLC-MS/MS analysis; format: ADME, organism-based; settings: in vivo
[14] = Dose normalized AUC (0 to t) in Han-Wistar rat brain at 2 mg/kg, po measured up to 7 hrs by UPLC-MS/MS analysis; format: ADME, organism-based; settings: in vivo
[15] = Ratio of total drug concentration in brain to blood in Han-Wistar rat at 2 mg/kg, po; format: ADME, organism-based
[16] = Unbound fraction in Han-Wistar rat brain at 2 mg/kg, po; format: ADME, organism-based

SMILES | IC50 [1] [µM] | IC50 [2] [µM] | logD [3] | solubility at 4 h [4] [µg/mL] | CLH [11] [mL/min/g] | other results
CCOc1nc(Nc2ccc(C(=O)N3CCN(C)CC3)cc2OC)nc2[nH]ccc12 | 0.0158 |  |  |  |  | 
NC(=O)c1ccc(Nc2nc(NCC(F)(F)F)c3cc[nH]c3n2)cc1 | 0.0126 | 0.0501 | 2.8 | 8.6 (≈ 24.6 µM) |  | Papp [5]: 3.6 ×10⁻⁶ cm/s; inhibition [6]: > 50%; inhibition [7]: > 50%; inhibition [8]: > 50%; inhibition [9]: > 50%; inhibition [10]: > 50%
CCOc1nc(Nc2ccc(C(=O)N3CCC(F)CC3)cc2OC)nc2[nH]ccc12 | 0.00631 | 0.316 |  | 39.7 (≈ 96 µM) | 1.1 | 
CCOc1nc(Nc2ccc(C(=O)N3CCN(C)CC3)cc2N(C)C)nc2[nH]ccc12 | 0.2 | 3.16 |  |  |  | 
CCOc1nc(Nc2ccc(C(=O)N3CCOCC3)cc2)nc2[nH]ccc12 | 0.00794 | 0.0631 | 3.9 | 1.7 (≈ 4.63 µM) |  | Papp [5]: 51 ×10⁻⁶ cm/s; inhibition [6]: > 50%; inhibition [7]: > 50%; inhibition [8]: > 50%; inhibition [9]: > 50%; inhibition [10]: > 50%
CCOc1nc(Nc2ccc(C(=O)N3C[C@@H](C)O[C@@H](C)C3)cc2OC)nc2[nH]ccc12 | 0.0631 | 0.2 | 5.7 | 4.4 (≈ 10.3 µM) | 1.5 | 
CCOc1nc(Nc2ccc(C(=O)N3CCN(C)CC3)cc2)nc2[nH]ccc12 | 0.0126 | 0.0794 |  |  |  | 
CCOc1nc(Nc2ccc(C(=O)N3CCOCC3)cc2OC(C)C)nc2[nH]ccc12 | 0.0126 | 0.631 |  |  |  | 
CCOc1cc(C(=O)N2CCN(C)CC2)ccc1Nc1nc(OCC)c2cc[nH]c2n1 | 0.01 | 0.126 |  |  |  | 
CCOc1nc(Nc2ccc(C(=O)N3CCOC[C@H]3C)cc2OC)nc2[nH]ccc12 | 0.0158 | 0.0794 | 5.1 | 78.8 (≈ 192 µM) | 0.8 | Ratio [12]: 2.2
CCOc1nc(Nc2ccc(C(=O)N3CCN(C)CC3)cc2F)nc2[nH]ccc12 | 0.0126 | 0.158 |  |  |  | 
CCOc1nc(Nc2ccc(C(=O)N3CCN(C)CC3)cc2OC(F)F)nc2[nH]ccc12 | < 0.000158 | 0.158 |  |  |  | 
CCOc1nc(Nc2ccc(C(=O)N3CCN4CCC[C@H]4C3)cc2OC)nc2[nH]ccc12 |  |  | 4.9 | 309 (≈ 709 µM) | 3.2 | 
CCOc1nc(Nc2ccc(C(=O)NCC(C)(C)O)cc2OC)nc2[nH]ccc12 | 0.0126 | 0.126 | 4.1 | 25.5 (≈ 63.8 µM) | 0.8 | Ratio [12]: 3.8
CCOc1nc(Nc2ccc(C(=O)N3CCOC[C@@H]3C)cc2OC)nc2[nH]ccc12 | 0.00794 | 0.1 | 5 | 154 (≈ 374 µM) | 1.4 | Ratio [12]: 1.8
CCOc1nc(Nc2ccc(C(=O)N3CCN(C)CC3)cc2Cl)nc2[nH]ccc12 | 0.0126 | 0.251 |  |  |  | 
CCOc1nc(Nc2ccc(C(=O)N3CCN4CCC[C@@H]4C3)cc2OC)nc2[nH]ccc12 |  |  | 4.9 | 300 (≈ 687 µM) | 2.5 | AUCt/dose [13]: 487 ng·h/g/mg/kg; AUCt/dose [14]: 246 ng·h/g/mg/kg; Kp [15]: 0.51; fraction unbound [16]: < 0.005
CCOc1nc(Nc2ccc(C(=O)N3CC4(COC4)C3)cc2OC)nc2[nH]ccc12 | 0.0631 | 0.158 | 4.3 | 6.2 (≈ 15.1 µM) | 1.1 | 
CCOc1nc(Nc2ccc(C(=O)N3CCC4(CC3)CN(C)C4)cc2OC)nc2[nH]ccc12 | 0.00631 | 0.0631 | 3 | 621 (≈ 1380 µM) | < 0.777 | Ratio [12]: 5
